These results are taken from patent US12404241B2 (Celgene Corporation, priority 2018, dated 2025).

Some results are limits rather than exact numbers.

This assay has as its target T1, AR (Homo sapiens, UniProt P10275).
T1 construct: endogenous in cells; host or cells: VCaP cells
T1 sequence (P10275 1-920): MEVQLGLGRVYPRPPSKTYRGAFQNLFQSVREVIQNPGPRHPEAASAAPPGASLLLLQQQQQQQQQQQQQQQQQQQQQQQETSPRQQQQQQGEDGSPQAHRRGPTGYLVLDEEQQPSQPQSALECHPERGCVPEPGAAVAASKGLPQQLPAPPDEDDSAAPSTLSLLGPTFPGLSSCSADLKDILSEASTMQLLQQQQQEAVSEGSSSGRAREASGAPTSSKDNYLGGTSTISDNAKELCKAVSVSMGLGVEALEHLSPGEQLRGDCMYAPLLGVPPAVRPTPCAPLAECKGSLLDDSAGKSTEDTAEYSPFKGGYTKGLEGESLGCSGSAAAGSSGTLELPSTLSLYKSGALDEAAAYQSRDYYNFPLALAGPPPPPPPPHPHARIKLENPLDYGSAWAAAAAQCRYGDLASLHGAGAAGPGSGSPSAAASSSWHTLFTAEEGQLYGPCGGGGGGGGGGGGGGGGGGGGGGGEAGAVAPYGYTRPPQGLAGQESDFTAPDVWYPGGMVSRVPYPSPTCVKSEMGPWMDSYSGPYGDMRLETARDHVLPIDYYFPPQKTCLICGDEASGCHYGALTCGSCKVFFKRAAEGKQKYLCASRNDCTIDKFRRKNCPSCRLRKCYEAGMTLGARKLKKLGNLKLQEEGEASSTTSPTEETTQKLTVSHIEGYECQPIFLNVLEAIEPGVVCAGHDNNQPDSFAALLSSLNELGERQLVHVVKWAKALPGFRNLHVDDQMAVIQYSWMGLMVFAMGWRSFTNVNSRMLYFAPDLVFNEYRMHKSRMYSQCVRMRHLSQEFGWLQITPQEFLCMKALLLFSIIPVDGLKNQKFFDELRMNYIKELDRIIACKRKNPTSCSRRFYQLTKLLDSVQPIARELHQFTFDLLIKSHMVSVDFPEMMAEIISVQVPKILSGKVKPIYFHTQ
Briefly: VCAP AR Degradation Assay. The assay is classed as cell-based. The following applies: for Y (AR degradation efficiency, % of DMSO control): class symbols *; for DC50: class symbols A-C, read-out: DC50. The gist of the method:
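24 h, 37 °C, VCaP (DMEM/8% FBS), 10-pt 1:3 dilutions from 5 μM final top, 0.1% DMSO ctrl. Lysis on ice/4 °C 1 h; total AR by sandwich ELISA, normalized to DMSO. 4PL fit → DC50, EC50, Y (min AR level).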

For the compound `CCc1cc(N2C(=S)N(c3ccc(C#N)c(C(F)(F)F)c3)C(=O)C2(C)C)ccc1OCCN1C[C@H](C)N(CC(=O)Nc2cc(Cl)cc(NC3CCC(=O)NC3=O)c2)[C@@H](C)C1` (stereo partly drawn) [Example 147, N-(3-chloro-5-(2,6-dioxopiperidin-3-ylamino)phenyl)-2-((2S,6S)-4-(2-(4-(3-(4-cyano-3-(trifluoromethyl)phenyl)-5,5-dimethyl-4-oxo-2-thioxoimidazolidin-1-yl)-2-ethylphenoxy)ethyl)-2,6-dimethylpiperazin-1-yl)acetamide], the “Y (AR degradation efficiency, % of DMSO control)” value was “* (0<Y<=25%)” and the 50% degradation concentration (DC50) (as a rule, the midpoint of the concentration-degradation curve) was less than 100 nM.

Consider `C[C@@H]1CN(CCOc2ccc(N3C(=S)N(c4ccc(C#N)c(C(F)(F)F)c4)C(=O)C3(C)C)cc2C(C)(F)F)CCN1CC(=O)Nc1cc(Cl)cc(NC2CCC(=O)NC2=O)c1` (stereo partly drawn) [Example 148, N-(3-chloro-5-(2,6-dioxopiperidin-3-ylamino)phenyl)-2-((R)-4-(2-(4-(3-(4-cyano-3-(trifluoromethyl)phenyl)-5,5-dimethyl-4-oxo-2-thioxoimidazolidin-1-yl)-2-(1,1-difluoroethyl)phenoxy)ethyl)-2-methylpiperazin-1-yl)acetamide], for which the “Y (AR degradation efficiency, % of DMSO control)” value is “* (0<Y<=25%)” and the half-maximal degradation concentration (DC50) was less than 100 nM.

Regarding `C[C@@H]1CN(CCOc2ccc(N3C(=S)N(c4cnc(C#N)c(C(F)(F)F)c4)C(=O)C3(C)C)cc2C(C)(F)F)CCN1CC(=O)Nc1cc(Cl)cc(NC2CCC(=O)NC2=O)c1` (stereo partly drawn) [Example 149, N-(3-chloro-5-(2,6-dioxopiperidin-3-ylamino)phenyl)-2-((R)-4-(2-(4-(3-(6-cyano-5-(trifluoromethyl)pyridin-3-yl)-5,5-dimethyl-4-oxo-2-thioxoimidazolidin-1-yl)-2-(1,1-difluoroethyl)phenoxy)ethyl)-2-methylpiperazin-1-yl)acetamide], the “Y (AR degradation efficiency, % of DMSO control)” value was “* (0<Y<=25%)” and the DC50 was less than 100 nM.

As for `CCc1cc(N2C(=S)N(c3ccc(C#N)c(C(F)(F)F)c3)C(=O)C2(C)C)ccc1OCCN1C[C@@H](C)N(CC(=O)Nc2cccc(NC3CCC(=O)NC3=O)c2)[C@@H](C)C1` (stereo partly drawn) [Example 150, 2-((2S,6R)-4-(2-(4-(3-(4-cyano-3-(trifluoromethyl)phenyl)-5,5-dimethyl-4-oxo-2-thioxoimidazolidin-1-yl)-2-ethylphenoxy)ethyl)-2,6-dimethylpiperazin-1-yl)-N-(3-(2,6-dioxopiperidin-3-ylamino)phenyl)acetamide], the “Y (AR degradation efficiency, % of DMSO control)” value is “* (0<Y<=25%)” and the DC50 is less than 100 nM.

Take `CCc1cc(N2C(=S)N(c3cnc(C#N)c(C(F)(F)F)c3)C(=O)C2(C)C)ccc1OCCN1C[C@@H](C)N(CC(=O)Nc2cccc(NC3CCC(=O)NC3=O)c2)[C@@H](C)C1` (stereo partly drawn) [Example 151, 2-((2R,6S)-4-(2-(4-(3-(6-cyano-5-(trifluoromethyl)pyridin-3-yl)-5,5-dimethyl-4-oxo-2-thioxoimidazolidin-1-yl)-2-ethylphenoxy)ethyl)-2,6-dimethylpiperazin-1-yl)-N-(3-(2,6-dioxopiperidin-3-ylamino)phenyl)acetamide]: the “Y (AR degradation efficiency, % of DMSO control)” value is given as “* (0<Y<=25%)” and the 50% degradation concentration (DC50) is less than 100 nM.

On to `C[C@@H]1CN(CCOc2ccc(N3C(=S)N(c4ccc(C#N)c(C(F)(F)F)c4)C(=O)C3(C)C)cc2CC(F)F)CCN1CC(=O)Nc1cc(Cl)cc(NC2CCC(=O)NC2=O)c1` (stereo partly drawn) [Example 152, N-(3-chloro-5-(2,6-dioxopiperidin-3-ylamino)phenyl)-2-((R)-4-(2-(4-(3-(4-cyano-3-(trifluoromethyl)phenyl)-5,5-dimethyl-4-oxo-2-thioxoimidazolidin-1-yl)-2-(2,2-difluoroethyl)phenoxy)ethyl)-2-methylpiperazin-1-yl)acetamide], for which the “Y (AR degradation efficiency, % of DMSO control)” value is “* (0<Y<=25%)” and the DC50 was less than 100 nM.

For `C[C@@H]1CN(CCOc2ccc(N3C(=S)N(c4ccc(C#N)c(C(F)(F)F)c4)C(=O)C3(C)C)cc2CC(F)F)CCN1CC(=O)Nc1cccc(NC2CCC(=O)NC2=O)c1` (stereo partly drawn) [Example 153, 2-((R)-4-(2-(4-(3-(4-cyano-3-(trifluoromethyl)phenyl)-5,5-dimethyl-4-oxo-2-thioxoimidazolidin-1-yl)-2-(2,2-difluoroethyl)phenoxy)ethyl)-2-methylpiperazin-1-yl)-N-(3-(2,6-dioxopiperidin-3-ylamino)phenyl)acetamide], the “Y (AR degradation efficiency, % of DMSO control)” value is on record as “* (0<Y<=25%)” and the DC50 is less than 100 nM.

As for `CCc1cc(N2C(=S)N(c3ccc(C#N)c(C(F)(F)F)c3)C(=O)C2(C)C)ccc1OCCN1CCN(CC(=O)Nc2cc(C#N)cc(NC3CCC(=O)NC3=O)c2)[C@H](C)C1` (stereo partly drawn) [Example 154, 2-((R)-4-(2-(4-(3-(4-cyano-3-(trifluoromethyl)phenyl)-5,5-dimethyl-4-oxo-2-thioxoimidazolidin-1-yl)-2-ethylphenoxy)ethyl)-2-methylpiperazin-1-yl)-N-(3-cyano-5-(2,6-dioxopiperidin-3-ylamino)phenyl)acetamide], the “Y (AR degradation efficiency, % of DMSO control)” value is recorded as “* (0<Y<=25%)” and the 50% degradation concentration (DC50) is less than 100 nM.

Regarding `CCc1cc(N2C(=S)N(c3cnc(C#N)c(C(F)(F)F)c3)C(=O)C2(C)C)ccc1OCCN1CCN(CC(=O)Nc2cc(C#N)cc(NC3CCC(=O)NC3=O)c2)[C@H](C)C1` (stereo partly drawn) [Example 155, N-(3-cyano-5-(2,6-dioxopiperidin-3-ylamino)phenyl)-2-((R)-4-(2-(4-(3-(6-cyano-5-(trifluoromethyl)pyridin-3-yl)-5,5-dimethyl-4-oxo-2-thioxoimidazolidin-1-yl)-2-ethylphenoxy)ethyl)-2-methylpiperazin-1-yl)acetamide], the “Y (AR degradation efficiency, % of DMSO control)” value is given as “* (0<Y<=25%)” and the DC50 is less than 100 nM.

On to `C[C@@H]1CN(CCOc2ccc(N3C(=S)N(c4ccc(C#N)c(C(F)(F)F)c4)C(=O)C3(C)C)cc2CC(F)F)CCN1CC(=O)Nc1cc(NC2CCC(=O)NC2=O)ccc1F` (stereo partly drawn) [Example 156, 2-((R)-4-(2-(4-(3-(4-cyano-3-(trifluoromethyl)phenyl)-5,5-dimethyl-4-oxo-2-thioxoimidazolidin-1-yl)-2-(2,2-difluoroethyl)phenoxy)ethyl)-2-methylpiperazin-1-yl)-N-(5-(2,6-dioxopiperidin-3-ylamino)-2-fluorophenyl)acetamide], for which the “Y (AR degradation efficiency, % of DMSO control)” value was “* (0<Y<=25%)” and the DC50 was less than 100 nM.

As for `CC(F)(F)c1cc(N2C(=S)N(c3ccc(C#N)c(C(F)(F)F)c3)C(=O)C2(C)C)ccc1OCCN1CCN(CC(=O)Nc2cc(Cl)cc(NC3CCC(=O)NC3=O)c2)CC1` (stereo not shown) [Example 157, N-(3-chloro-5-(2,6-dioxopiperidin-3-ylamino)phenyl)-2-(4-(2-(4-(3-(4-cyano-3-(trifluoromethyl)phenyl)-5,5-dimethyl-4-oxo-2-thioxoimidazolidin-1-yl)-2-(1,1-difluoroethyl)phenoxy)ethyl)piperazin-1-yl)acetamide], the “Y (AR degradation efficiency, % of DMSO control)” value is recorded as “* (0<Y<=25%)” and the DC50 is less than 100 nM.

With `C[C@@H]1CN(CCOc2ccc(N3C(=S)N(c4ccc(C#N)c(C(F)(F)F)c4)C(=O)C3(C)C)cc2CC(F)F)CCN1CC(=O)Nc1cc(F)cc(NC2CCC(=O)NC2=O)c1` (stereo partly drawn) [Example 158, 2-((R)-4-(2-(4-(3-(4-cyano-3-(trifluoromethyl)phenyl)-5,5-dimethyl-4-oxo-2-thioxoimidazolidin-1-yl)-2-(2,2-difluoroethyl)phenoxy)ethyl)-2-methylpiperazin-1-yl)-N-(3-(2,6-dioxopiperidin-3-ylamino)-5-fluorophenyl)acetamide], the “Y (AR degradation efficiency, % of DMSO control)” value is “* (0<Y<=25%)” and the DC50 was less than 100 nM.

For the compound `CC1(C)C(=O)N(c2ccc(C#N)c(C(F)(F)F)c2)C(=S)N1c1ccc(OCCN2CCN(CC(=O)Nc3cc(Cl)cc(NC4CCC(=O)NC4=O)c3)CC2)c(CC(F)F)c1` (stereo not shown) [Example 159, N-(3-chloro-5-(2,6-dioxopiperidin-3-ylamino)phenyl)-2-(4-(2-(4-(3-(4-cyano-3-(trifluoromethyl)phenyl)-5,5-dimethyl-4-oxo-2-thioxoimidazolidin-1-yl)-2-(2,2-difluoroethyl)phenoxy)ethyl)piperazin-1-yl)acetamide], the “Y (AR degradation efficiency, % of DMSO control)” value is listed as “* (0<Y<=25%)” and the DC50 is less than 100 nM.

On to `CC1(C)C(=O)N(c2ccc(C#N)c(C(F)(F)F)c2)C(=S)N1c1ccc(OCCN2CCN(CC(=O)Nc3cccc(NC4CCC(=O)NC4=O)c3)CC2)c(CCF)c1` (stereo not shown) [Example 160, 2-(4-(2-(4-(3-(4-cyano-3-(trifluoromethyl)phenyl)-5,5-dimethyl-4-oxo-2-thioxoimidazolidin-1-yl)-2-(2-fluoroethyl)phenoxy)ethyl)piperazin-1-yl)-N-(3-(2,6-dioxopiperidin-3-ylamino)phenyl)acetamide], for which the “Y (AR degradation efficiency, % of DMSO control)” value is reported as “* (0<Y<=25%)” and the DC50 is less than 100 nM.
